In patent US12433866B2, “Lasofoxifene treatment of aromatase-resistant ER+ cancer” (Sermonix Pharmaceuticals, Inc., priority 2021, dated 2025):

What was measured:
MCF7 LTLT primary tumors [1] = experiment: Ki67 proliferation index by immunohistochemistry on fixed mammary glands, MCF7 LTLT MIND model; format: in vivo, NSG mice; details: for Ki67 percentage (mean +/− standard deviation): Let+ cohort (all groups also received letrozole 10 μg/day); for % Ki67 % mean: MCF7 LTLT primary tumors, IHC at sacrifice after 90-93 days of treatment, manual counting, Let− cohort, and Let+ cohort where label includes letrozole; for Effect on Ki67 percentage / proliferation index (in words): MCF7 LTLT model, comparisons as stated
Protocol: (§1) After cell injection, mice were separated into 2 equal groups; one group received 10 μg/day of letrozole in 15% PEG400 in PBS via subcutaneous injection, “LTLT-Let”; the other group wasn't administered letrozole (“LTLT”). Two to three weeks after cell injections, mice in each group were randomized and treated 5 days/week with lasofoxifene (10 mg/kg, in 100 μl of PBS containing 15% PEG400), palbociclib (70 mg/kg, Med Chem Express #HY-50567, in 50 mM sodium lactate buffer pH4), or vehicle. Lasofoxifene and vehicle were administered subcutaneously. Palbociclib was administered via oral gavage 5 times/week. Fulvestrant (Med Chem Express #HY-13636) (“IC”) (5 mg/mouse) was administered once per week via subcutaneous injection in 100 μl of mineral oil. Mice were also treated with combinations of lasofoxifene+palbociclib, fulvestrant+palbociclib, lasofoxifene+letrozole and palbociclib or fulvestrant+palbociclib, or letrozole.
Harvested tissues were fixed in formalin for IHC and H&E staining. Tissue histology was performed by the Human Tissue Resource Center (HRTC) at the University of Chicago. Primary Glands excised from the mice were sectioned and stained with antibodies to estrogen receptor alpha (ThermoScientific, RM-9101-S0, clone SP1), progesterone receptor (ThermoScientific, RM-9102-S0, clone SP2), glucocorticoid receptor (Cell Signaling, Cat #3660), androgen receptor (Abcam, ab133273, clone EPR1535), Ki67 (ThermoScientific, Cat #RM-9106-s, Clone: SP6) and human-specific mouse monoclonal antibody to mitochondria (Abcam, ab92824, clone 112-1).
(§2) H&E and IHC slides were scanned on a Nikon eclipse Ti2 microscope with a 10× objective for high resolution images. Ki67 score was determined using standardized manual counting.
Immunohistochemistry with anti-Ki67 antibody was performed on fixed mammary glands to determine the proliferation index for MCF7 LTLT primary tumors.

[2] = tested on: MCF7 LTLT (AI-resistant, ER+, cells lacking ESR1 gain-of-function mutations) tumors; experiment: MIND model: luciferase-GFP MCF7 LTLT cells in mammary ducts of NSG mice, live luminescence imaging of primary tumors (total photon flux); format: in vivo; details: for Inhibition of primary tumor growth (conclusion in words): MCF7 LTLT tumors, AI-resistant, no ESR1 gain-of-function mutations
Protocol: Luciferase-GFP tagged LTLT cells were injected into the mammary ducts of NSG mice (MIND model) and tumor progression was monitored by live luminescence imaging of primary tumors, as well as ex vivo imaging and histochemical analysis of metastatic sites at study endpoint. Primary tumor area was also measured at study endpoint.
Cells were grown in RPMI containing 10% FBS and 1 μM letrozole.
Mouse studies were performed in compliance with an approved Institutional Animal Care and Use Committee protocol. NSG (NOD.Cg-Prkdcscid Il2rgtmlWjl/SzJ) mice were purchased from The Jackson Laboratories. Prior to injection, mice were anesthetized via inhalation with 2-3% isoflurane in oxygen. […] Tumor growth in situ was followed via imaging in a Xenogen IVIS 200 instrument in the Integrated Small Animal Imaging Research Resource at the University of Chicago.
Lasofoxifene and vehicle were administered subcutaneously. Palbociclib was administered via oral gavage 5 times/week. […] Mice were also treated with combinations of lasofoxifene+palbociclib, fulvestrant+palbociclib, lasofoxifene+letrozole and palbociclib or fulvestrant+palbociclib, or letrozole.
MCF7 LTLT cells labeled with GFP luciferase were injected into the mammary ducts of NSG mice to establish tumors that represent an AI resistant, non-ESR1-mutated, breast cancer model. Treatment with lasofoxifene, palbociclib and combinations of lasofoxifene and palbociclib were carried out in the presence (Let^+) or absence (Let^−) of letrozole, to account for the potential loss of letrozole resistance (“reversion”) in the Let^− cohort. Mice were imaged every other week in a Xenogen IVIS scanner to estimate tumor growth. At the end of the study, mammary glands were removed and weighed.

MCF7 LTLT primary tumors [3] = experiment: Mammary gland weight at sacrifice, MCF7 LTLT MIND model; format: in vivo, NSG mice; details: Let− cohort
Protocol: Mouse studies were performed in compliance with an approved Institutional Animal Care and Use Committee protocol. NSG (NOD.Cg-Prkdcscid Il2rgtmlWjl/SzJ) mice were purchased from The Jackson Laboratories. Prior to injection, mice were anesthetized via inhalation with 2-3% isoflurane in oxygen. Injections of single-cell suspensions of 250,000 MCF7 cells in the mammary ducts of inguinal glands 4 and 9 were performed as described (Behbod, F., et al. Breast Cancer Res. 11, R66 (2009); Sflomos, G., et al. Cancer Cell 29, 407-422 (2016); Laine, M., et al. Breast Cancer Res. 23, 54 (2021)). Tumor growth in situ was followed via imaging in a Xenogen IVIS 200 instrument in the Integrated Small Animal Imaging Research Resource at the University of Chicago. For IVIS imaging, mice were injected with 100 μl of a 0.1 M luciferin solution in PBS (Perkin Elmer XenoLight #122799).
After cell injection, mice were separated into 2 equal groups; one group received 10 μg/day of letrozole in 15% PEG400 in PBS via subcutaneous injection, “LTLT-Let”; the other group wasn't administered letrozole (“LTLT”). Two to three weeks after cell injections, mice in each group were randomized and treated 5 days/week with lasofoxifene (10 mg/kg, in 100 μl of PBS containing 15% PEG400), palbociclib (70 mg/kg, Med Chem Express #HY-50567, in 50 mM sodium lactate buffer pH4), or vehicle. […]

MCF7 LTLT primary tumors [4] = experiment: Percent tumor area vs total gland area by H&E of mammary gland sections, MCF7 LTLT MIND model; format: in vivo, NSG mice; details: Let− cohort
Protocol: as §1
Harvested tissues were fixed in formalin for IHC and H&E staining. Tissue histology was performed by the Human Tissue Resource Center (HRTC) at the University of Chicago. […]
as §2
H&E slides were scanned on a Nikon microscope and analyzed with the NSI element software.

MCF7 LTLT cells = experiment: Ex vivo IVIS radiance of excised liver, lung, brain and bone at sacrifice (metastasis), MCF7 LTLT MIND model; set-up: species or system NSG mice; details: ex vivo radiance in bones at sacrifice
Protocol: as §1
After 90-93 days of treatment, mice were sacrificed, and mammary gland tumors were excised and weighed. Liver, bone brain and lungs were removed and imaged ex vivo in the IVIS 200, following an in vivo injection of luciferin 8 min prior to sacrifice, to measure luciferase activity.
At sacrifice, livers, lungs, bones and brains were excised and imaged ex vivo on the IVIS. […] Data for Let^+ group were evaluated but are not shown.

[5] = tested on: MCF-7 xenograft with activating ERα mutations; details: gain-of-function activating mutations in the ERα receptor; previous studies; cited from earlier work
[6] = post-menopausal women with no history of breast cancer, wild estrogen receptors; cited from earlier work

Structure (SMILES) | Ki67 percentage (mean +/− standard deviation) (MCF7 LTLT primary tumors [1]) | % Ki67 % mean (MCF7 LTLT primary tumors [1]) | Inhibition of primary tumor growth (conclusion in words) [2] | Inhibition of primary tumor growth (conclusion in words) ([2]; listed as Lasofoxifene) | Photon flux at day 104 (in words) ([2]; day 104, regardless of the presence of letrozole) | Mammary gland weight at end of study (in words) (MCF7 LTLT primary tumors [3]) | % tumor area of total gland area, H&E (in words) (MCF7 LTLT primary tumors [4]) | Reduction of the Ki67 percentage (MCF7 LTLT primary tumors [1]; Let+ cohort, versus letrozole control) | Bone metastasis / bone radiance versus vehicle (in words) (MCF7 LTLT cells) | Inhibition of tumor growth and metastasis compared with fulvestrant (in words) [5] | Risk of ER+ breast cancer (in words) [6] | Effect on Ki67 percentage / proliferation index (in words) (MCF7 LTLT primary tumors [1]; Let+ cohort) | Tumor photon flux in the presence of letrozole (in words) ([2]; Let+ cohort, data not shown) | Total photon flux over time (in words) ([2]; imaged every other week, Let− cohorts shown) | Bone readings with a signal above threshold (MCF7 LTLT cells)
CC(=O)c1c(C)c2cnc(Nc3ccc(N4CCNCC4)cn3)nc2n(C2CCCC2)c1=O [palbociclib] | 45.3+/−19.0% | 51.7% | – | – | – | – | – | – | – | – | – | – | – | – | –
Oc1ccc2c(c1)CC[C@H](c1ccccc1)[C@@H]2c1ccc(OCCN2CCCC2)cc1 [lasofoxifene] | – | 46.0% | significantly inhibits primary tumor growth | significantly more effective than fulvestrant | significantly lower than vehicle and fulvestrant (ICI) treatment | inhibits increases in primary tumor weight | significantly lower | 6.5% | appears to inhibit metastasis to the bone | more effective than fulvestrant at inhibiting tumor growth and metastasis to the liver, lung, bone and brain | reduce the risk of ER^+ breast cancer | – | – | – | –
N#Cc1ccc(C(c2ccc(C#N)cc2)n2cncn2)cc1 [letrozole] | 39.5+/−7.7% | 39.5% | – | – | – | – | – | – | – | – | – | significantly lowers the Ki67 percentage | – | – | –
C[C@]12CC[C@@H]3c4ccc(O)cc4C[C@@H](CCCCCCCCC[S+]([O-])CCCC(F)(F)C(F)(F)F)[C@H]3[C@@H]1CC[C@@H]2O (stereo partly shown) [fulvestrant (ICI), fulvestrant] | – | 56.8% | – | – | – | inhibits mammary gland weight | did not reach statistical significance | – | – | – | – | do not reduce Ki67% levels | appeared to increase tumor photon flux | higher than all other treatments | 2 readings
